For one assay, the target named is T1, BRD4 BD1 (Homo sapiens, UniProt O60885).
T1 construct: made in house
The assay is described as follows: AlphaScreen binding assay, BRD4 Bromodomain 1. Summed up:
(§1)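 Compound dilution series were mixed with His-tagged BRD4 bromodomain and biotinylated tetra-acetylated H4 (1-21) peptide at pH 7.3 (BD1 and peptide at 50 nM, BD2 and peptide at 100 nM). Donor and acceptor beads were then added, and plates were equilibrated at least 1 h before reading. IC50 values were fitted with a four-parameter logistic model.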
(Bead proximity is the source of the signal in Alpha formats.)

In another assay the target is T2, BRD4 BD2 (Homo sapiens, UniProt O60885).
T2 construct: made in house
The assay is described as follows: AlphaScreen binding assay, BRD4 Bromodomain 2. In a few lines:
as §1

Another assay has as its system MV4-11 cells. The assay can be described thus: Oncology cell growth assay (3-day proliferation, CellTiter-Glo). It counts as cell-based. The note with it: Homo sapiens, AML cell line MV4-11, 72 hours, compounds grouped by IC50 range, read-out: MV4-11 IC50 (inhibition of proliferation, gIC50). In a few lines:
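A 3-day proliferation test used MV4-11 cells seeded at 3000 per well with eight compound concentrations (10 μM top, 3-fold dilution) at 37° C in 5% CO2. CellTiter-Glo luminescence defined viable cell signal. A four-parameter logistic curve against DMSO and background wells gave the gIC50.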

This is an account of results in patent US10703764B2, “Benzopiperazine compositions as BET bromodomain inhibitors” (FORMA Therapeutics, Inc., priority 2013, dated 2020).

Where two headings read alike, the source gives them in different places.

On to `CC(=O)N1c2ccc(-c3cnn(C4COC4)c3)cc2N(C(=O)OC2CC(F)(F)C2)C[C@@H]1C` [Example I-65, (S)-3,3-difluorocyclobutyl 4-acetyl-3-methyl-7-(1-(oxetan-3-yl)-1H-pyrazol-4-yl)-3,4-dihydroquinoxaline-1(2H)-carboxylate], for which the IC50 is less than 100 nM at BRD4 BD1; less than 50 nM on BRD4 BD2; 100 to 500 nM with MV4-11 cells (MV4-11, 72 h).
In the same order, the values of `CC(=O)N1c2ccc(-c3cnn(C4COC4)c3)cc2N(C(=O)OCC2(F)COC2)C[C@@H]1C` [Example I-66, (S)-(3-fluorooxetan-3-yl)methyl 4-acetyl-3-methyl-7-(1-(oxetan-3-yl)-1H-pyrazol-4-yl)-3,4-dihydroquinoxaline-1(2H)-carboxylate] are less than 100 nM, less than 50 nM and 100 to 500 nM.
On the same counts, the results for `CC(=O)N1c2ccc(-c3cnn(C4COC4)c3)cc2N(C(=O)OCCC(F)(F)F)C[C@@H]1C` [Example I-69, (S)-3,3,3-trifluoropropyl 4-acetyl-3-methyl-7-(1-(oxetan-3-yl)-1H-pyrazol-4-yl)-3,4-dihydroquinoxaline-1(2H)-carboxylate] are less than 100 nM, less than 50 nM and 100 to 500 nM.
On the same counts, the results for `CC(=O)N1c2ccc(-c3cnn(C4COC4)c3)cc2N(C(=O)OCC(F)(F)F)C[C@@H]1C` [Example I-71, (S)-2,2,2-trifluoroethyl 4-acetyl-3-methyl-7-(1-(oxetan-3-yl)-1H-pyrazol-4-yl)-3,4-dihydroquinoxaline-1(2H)-carboxylate] are less than 100 nM, less than 50 nM and 100 to 500 nM.
Consider `CC(=O)N1c2ccc(-c3cnn(C4COC4)c3)cc2N(C(=O)OC(CF)CF)C[C@@H]1C` [Example I-72, (S)-1,3-difluoropropan-2-yl 4-acetyl-3-methyl-7-(1-(oxetan-3-yl)-1H-pyrazol-4-yl)-3,4-dihydroquinoxaline-1(2H)-carboxylate], for which the IC50 at BRD4 BD1 is 100 to 1000 nM; on BRD4 BD2, less than 50 nM; in the assay with MV4-11 cells (MV4-11, 72 h) it was 100 to 500 nM.
In the same order, the values of `CC(=O)N1c2ccc(-c3cnn(C4COC4)c3)cc2N(C(=O)OC2CC3CC3C2)C[C@@H]1C` (stereo partly drawn) [Example I-74, (3S)-bicyclo[3.1.0]hexan-3-yl 4-acetyl-3-methyl-7-(1-(oxetan-3-yl)-1H-pyrazol-4-yl)-3,4-dihydroquinoxaline-1(2H)-carboxylate] are less than 100 nM, less than 50 nM and 100 to 500 nM.
For the compound `CC(=O)N1c2ccc(-c3cnn(C4COC4)c3)cc2N(C(=O)OCC(C)(C)F)C[C@@H]1C` [Example I-77, (S)-2-fluoro-2-methylpropyl 4-acetyl-3-methyl-7-(1-(oxetan-3-yl)-1H-pyrazol-4-yl)-3,4-dihydroquinoxaline-1(2H)-carboxylate], the IC50 at BRD4 BD1 was less than 100 nM; on BRD4 BD2 it was less than 50 nM; in the assay with MV4-11 cells (MV4-11, 72 h), 100 to 500 nM.
With `CC(=O)N1c2ccc(-c3cnn(C4CC4)c3)cc2N(C(=O)OCCC(F)(F)F)C[C@@H]1C` [Example I-78, (S)-3,3,3-trifluoropropyl 4-acetyl-7-(1-cyclopropyl-1H-pyrazol-4-yl)-3-methyl-3,4-dihydroquinoxaline-1(2H)-carboxylate], the IC50 at BRD4 BD1 lay within 100 to 1000 nM; on BRD4 BD2 it was 50 to 500 nM; with MV4-11 cells (MV4-11, 72 h), 100 to 500 nM.
Turning to `CC(=O)N1c2ccc(-c3cnn(C4CC4)c3)cc2N(C(=O)OCC(F)(F)F)C[C@@H]1C` [Example I-79, (S)-2,2,2-trifluoroethyl 4-acetyl-7-(1-cyclopropyl-1H-pyrazol-4-yl)-3-methyl-3,4-dihydroquinoxaline-1(2H)-carboxylate], the IC50 was 100 to 1000 nM at BRD4 BD1; 50 to 500 nM on BRD4 BD2; 100 to 500 nM with MV4-11 cells (MV4-11, 72 h).
As to `CC(=O)N1c2ccc(-c3cnn(C4CC4)c3)cc2N(C(=O)OC(CF)CF)C[C@@H]1C` [Example I-80, (S)-1,3-difluoropropan-2-yl 4-acetyl-7-(1-cyclopropyl-1H-pyrazol-4-yl)-3-methyl-3,4-dihydroquinoxaline-1(2H)-carboxylate], the IC50 fell in the range of 100 to 1000 nM on BRD4 BD1; 50 to 500 nM on BRD4 BD2; 100 to 500 nM in the assay on MV4-11 cells (MV4-11, 72 h).
On to `CC(=O)N1c2ccc(-c3cnn(CCO)c3)cc2N(C(=O)OCCC(F)(F)F)C[C@@H]1C` [Example I-81, (S)-3,3,3-trifluoropropyl 4-acetyl-7-(1-(2-hydroxyethyl)-1H-pyrazol-4-yl)-3-methyl-3,4-dihydroquinoxaline-1(2H)-carboxylate], for which the IC50 on BRD4 BD1 is 1000 to 10000 nM; on BRD4 BD2, more than 500 nM; in the assay on MV4-11 cells (MV4-11, 72 h) it was 100 to 500 nM.
Take `CC(=O)N1c2ccc(-c3cnn(CCO)c3)cc2N(C(=O)OCC(F)(F)F)C[C@@H]1C` [Example I-82, (S)-2,2,2-trifluoroethyl 4-acetyl-7-(1-(2-hydroxyethyl)-1H-pyrazol-4-yl)-3-methyl-3,4-dihydroquinoxaline-1(2H)-carboxylate]: the IC50 at BRD4 BD1 was more than 10000 nM; on BRD4 BD2, more than 500 nM; in the assay on MV4-11 cells (MV4-11, 72 h) it was more than 500 nM.
On to `CC(=O)N1c2ccc(-c3cnn(CCO)c3)cc2N(C(=O)OC(CF)CF)C[C@@H]1C` [Example I-83, (S)-1,3-difluoropropan-2-yl 4-acetyl-7-(1-(2-hydroxyethyl)-1H-pyrazol-4-yl)-3-methyl-3,4-dihydroquinoxaline-1 (2H)-carboxylate], for which the IC50 on BRD4 BD1 was 100 to 1000 nM; on BRD4 BD2, 50 to 500 nM; with MV4-11 cells (MV4-11, 72 h), more than 500 nM.
Regarding `CC(=O)N1c2ccc(-c3cnn(C4COC4)c3)cc2N(C(=O)Oc2ccc(F)cc2)C[C@@H]1C` [Example I-85, 4-fluorophenyl (S)-4-acetyl-3-methyl-7-(1-(oxetan-3-yl)-1H-pyrazol-4-yl)-3,4-dihydroquinoxaline-1(2H)-carboxylate], the IC50 is less than 100 nM on BRD4 BD1; less than 50 nM at BRD4 BD2; 100 to 500 nM in the assay with MV4-11 cells (MV4-11, 72 h).
Consider `CC(=O)N1c2ccc(-c3cnn(C4COC4)c3)cc2N(C(=O)OC2CCCCC2)C[C@@H]1C` [Example I-86, (S)-cyclohexyl 4-acetyl-3-methyl-7-(1-(oxetan-3-yl)-1H-pyrazol-4-yl)-3,4-dihydroquinoxaline-1(2H)-carboxylate], for which the IC50 on BRD4 BD1 was 100 to 1000 nM; on BRD4 BD2 it was 50 to 500 nM; in the assay with MV4-11 cells (MV4-11, 72 h), less than 100 nM.
Regarding `COc1ccc(OC(=O)N2C[C@H](C)N(C(C)=O)c3ccc(-c4cnn(C5COC5)c4)cc32)cc1` [Example I-87, (S)-4-methoxyphenyl 4-acetyl-3-methyl-7-(1-(oxetan-3-yl)-1H-pyrazol-4-yl)-3,4-dihydroquinoxaline-1(2H)-carboxylate], the IC50 at BRD4 BD1 is less than 100 nM; on BRD4 BD2 it was less than 50 nM; in the assay with MV4-11 cells (MV4-11, 72 h), less than 100 nM.
Regarding `CC(=O)N1c2ccc(-c3cnn(C4COC4)c3)cc2N(C(=O)Oc2ccccc2)C[C@@H]1C` [Example I-88, (S)-phenyl 4-acetyl-3-methyl-7-(1-(oxetan-3-yl)-1H-pyrazol-4-yl)-3,4-dihydroquinoxaline-1(2H)-carboxylate], the IC50 at BRD4 BD1 was 100 to 1000 nM; at BRD4 BD2, less than 50 nM; with MV4-11 cells (MV4-11, 72 h), less than 100 nM.
In the case of `CC(=O)N1c2ccc(-c3cnn(C4COC4)c3)cc2N(C(=O)Oc2cccnc2)C[C@@H]1C` [Example I-89, (S)-pyridin-3-yl 4-acetyl-3-methyl-7-(1-(oxetan-3-yl)-1H-pyrazol-4-yl)-3,4-dihydroquinoxaline-1(2H)-carboxylate], the IC50 at BRD4 BD1 is less than 100 nM; at BRD4 BD2 it was less than 50 nM; in the assay with MV4-11 cells (MV4-11, 72 h) it was 100 to 500 nM.
On the same counts, the results for `CC(=O)N1c2ccc(-c3cnn(C4COC4)c3)cc2N(C(=O)Oc2ccncc2)C[C@@H]1C` [Example I-90, (S)-pyridin-4-yl 4-acetyl-3-methyl-7-(1-(oxetan-3-yl)-1H-pyrazol-4-yl)-3,4-dihydroquinoxaline-1(2H)-carboxylate] are less than 100 nM, less than 50 nM and 100 to 500 nM.
In the same order, the values of `CC(=O)N1c2ccc(-c3cnn(C4COC4)c3)cc2N(C(=O)Oc2ccccn2)C[C@@H]1C` [Example I-91, (S)-pyridin-2-yl 4-acetyl-3-methyl-7-(1-(oxetan-3-yl)-1H-pyrazol-4-yl)-3,4-dihydroquinoxaline-1(2H)-carboxylate] are less than 100 nM, less than 50 nM and 100 to 500 nM.
Consider `CC(=O)N1c2ccc(-c3cnn(C4CC4)c3)cc2N(c2n[nH]c3ccccc23)C[C@@H]1C` [Example I-93, (S)-1-(6-(1-cyclopropyl-1H-pyrazol-4-yl)-4-(1H-indazol-3-yl)-2-methyl-3,4-dihydroquinoxalin-1 (2H)-yl)ethan-1-one], for which the IC50 at BRD4 BD1 was 100 to 1000 nM; at BRD4 BD2, 50 to 500 nM; in the assay with MV4-11 cells (MV4-11, 72 h) it was less than 100 nM.
`CC(=O)N1c2ccc(-c3ccc(S(C)(=O)=O)cc3)cc2N(c2n[nH]c3ccccc23)C[C@@H]1C` [Example I-94, (S)-1-(4-(1H-indazol-3-yl)-2-methyl-6-(4-(methylsulfonyl)phenyl)-3,4-dihydroquinoxalin-1 (2H)-yl)ethan-1-one]: the IC50 on BRD4 BD1 is 100 to 1000 nM; on BRD4 BD2 it was 50 to 500 nM; with MV4-11 cells (MV4-11, 72 h), less than 100 nM.
With `CC(=O)N1c2ccc(-c3cnn(C4CC4)c3)cc2N(c2noc3ccccc23)C[C@@H]1C` [Example I-95, (S)-1-(4-(benzo[d]isoxazol-3-yl)-6-(1-cyclopropyl-1H-pyrazol-4-yl)-2-methyl-3,4-dihydroquinoxalin-1(2H)-yl)ethanone], the results for the IC50 at BRD4 BD1, at BRD4 BD2 and in the assay on MV4-11 cells were less than 100 nM, less than 50 nM and 100 to 500 nM, respectively.
